According to the supplement of paper PMC10307832:

How the values were obtained:
Test in all cases: relative viability (nuclei count vs DMSO), 5 days (fraction); higher = more cells survive
[1] = compound: CN(c1ncccc1CNc1nc(Nc2ccc3c(c2)CC(=O)N3)ncc1C(F)(F)F)S(C)(=O)=O + C[C@]1(O)C[C@@H](c2nc(-c3ccc4ccc(-c5ccccc5)nc4c3)c3c(N)nccn32)C1 [Linsitinib] (partner 1 µM)
In short: (§1)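 Relative viability divides the nuclei count in treated wells by that in vehicle wells. Lung cancer cell lines were seeded in 1536-well plates, dosed by pin tool the next day, and fixed and stained after 5 days in one step with final 0.05% Triton X-100, 1% formaldehyde and 1 ug/ml Hoechst. Dosing was a single drug or a fixed anchor-drug dose plus five library-drug doses (not always all listed) in √10 steps, and values are medians of duplicate plates imaged at 4×.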

[2] = compound: CN(c1ncccc1CNc1nc(Nc2ccc3c(c2)CC(=O)N3)ncc1C(F)(F)F)S(C)(=O)=O + O=C(CCCCCCC(=O)Nc1ccccc1)NO [Vorinostat] (partner 1 µM)
In short: as §1

[3] = compound: CN(c1ncccc1CNc1nc(Nc2ccc3c(c2)CC(=O)N3)ncc1C(F)(F)F)S(C)(=O)=O + O=C(c1cc(Cc2n[nH]c(=O)c3ccccc23)ccc1F)N1CCN(C(=O)C2CC2)CC1 [Olaparib] (partner 8 µM)
In short: as §1

[4] = compound: CN(c1ncccc1CNc1nc(Nc2ccc3c(c2)CC(=O)N3)ncc1C(F)(F)F)S(C)(=O)=O + Nc1nc2[nH]cc(CCc3ccc(C(=O)N[C@@H](CCC(=O)O)C(=O)O)cc3)c2c(=O)[nH]1 [Pemetrexed] (partner 0.2 µM)
In short: as §1

| Cell Line | relative viability ([1]; first compound 0.01 µM) | relative viability ([1]; first compound 0.03162 µM) | relative viability ([1]; first compound 0.1 µM) | relative viability ([1]; first compound 0.3162 µM) | relative viability ([1]; first compound 1 µM) | relative viability ([2]; first compound 0.01 µM) | relative viability ([2]; first compound 0.03162 µM) | relative viability ([2]; first compound 0.1 µM) | relative viability ([2]; first compound 0.3162 µM) | relative viability ([2]; first compound 1 µM) | relative viability ([3]; first compound 0.01 µM) | relative viability ([3]; first compound 0.03162 µM) | relative viability ([3]; first compound 0.1 µM) | relative viability ([3]; first compound 0.3162 µM) | relative viability ([3]; first compound 1 µM) | relative viability ([4]; first compound 0.01 µM) | relative viability ([4]; first compound 0.03162 µM) | relative viability ([4]; first compound 0.1 µM) | relative viability ([4]; first compound 0.3162 µM) | relative viability ([4]; first compound 1 µM) |
| --- | --- | --- | --- | --- | --- | --- | --- | --- | --- | --- | --- | --- | --- | --- | --- | --- | --- | --- | --- | --- |
| NCI-H2085 | 0.925 | 0.981 | 0.895 | 0.842 | 0.776 | 0.816 | 0.837 | 0.761 | 0.734 | 0.691 | 0.79 | 0.81 | 0.71 | 0.759 | 0.696 | 0.917 | 0.774 | 0.885 | 0.953 | 0.947 |
| NCI-H2087 | 1.03 | 1.04 | 1.14 | 1.16 | 0.99 | 0.722 | 0.872 | 0.901 | 0.613 | 0.589 | 0.634 | 0.639 | 0.614 | 0.464 | 0.668 | 0.695 | 0.751 | 0.685 | 0.728 | 0.584 |
| NCI-H2126 | 0.698 | 0.776 | 0.714 | 0.721 | 0.7 | 0.76 | 0.845 | 0.642 | 0.831 | 0.701 | 0.879 | 1.01 | 0.865 | 0.867 | 0.795 | 0.7 | 0.718 | 0.615 | 0.697 | 0.632 |
| NCI-H2228 | 0.502 | 0.286 | 0.627 | 1.06 | 0.929 | 0.42 | 0.579 | 0.758 | 0.882 | 0.547 | 0.619 | 1.01 | 0.665 | 0.766 | 0.539 | 0.368 | 0.343 | 0.366 | 0.313 | 0.355 |
| NCI-H2347 | 0.938 | 0.98 | 0.852 | 0.947 | 0.817 | 0.584 | 0.615 | 0.527 | 0.54 | 0.413 | 0.598 | 0.546 | 0.525 | 0.515 | 0.443 | 0.474 | 0.434 | 0.403 | 0.44 | 0.399 |
| NCI-H2405 | 0.899 | 0.935 | 0.818 | 0.865 | 0.824 | 0.961 | 0.724 | 0.971 | 0.761 | 0.868 | 0.879 | 0.922 | 0.78 | 0.702 | 0.641 | 1.06 | 1.01 | 0.984 | 0.924 | 0.832 |
| NCI-H3122 | 1.02 | 1.06 | 0.939 | 0.966 | 0.843 | 1.03 | 0.963 | 1.04 | 1 | 1.06 | 0.658 | 0.65 | 0.604 | 0.568 | 0.574 | 0.202 | 0.194 | 0.175 | 0.181 | 0.193 |
| PC-3 [JPC-3] | 0.984 | 1.01 | 0.938 | 0.925 | 0.835 | 0.826 | – | 0.775 | 0.795 | 0.753 | 1.13 | – | 1.05 | 1.08 | 1.04 | 1.02 | – | 1.13 | 1.07 | 1.18 |
| PC-14 | 0.976 | 1 | 1.06 | 0.961 | 1.01 | 0.75 | 0.764 | 0.692 | 0.811 | 0.653 | 0.38 | 0.282 | 0.271 | 0.261 | 0.243 | 0.162 | 0.135 | 0.134 | 0.128 | 0.134 |
| RERF-LC-KJ | 0.838 | 0.964 | 0.877 | 0.83 | 0.933 | 0.643 | 0.78 | 0.692 | 0.728 | 0.603 | 0.983 | 0.945 | 0.97 | 0.849 | 0.927 | 0.428 | 0.355 | 0.496 | 0.515 | 0.575 |
| SK-LU-1 | 0.936 | 1.12 | 0.966 | 1.02 | 0.97 | 0.6 | 0.693 | 0.722 | 0.711 | 0.594 | 0.411 | 0.433 | 0.38 | 0.408 | 0.445 | 1.04 | 0.903 | 0.954 | 1 | 0.88 |
| SK-MES-1 | 1.04 | 1.06 | 1.08 | 0.925 | 1.01 | 1.1 | 1.13 | 1.09 | 1.08 | 0.951 | 0.718 | 0.76 | 0.731 | 0.538 | 0.499 | 0.968 | 0.894 | 0.882 | 0.904 | 0.762 |
| SW 1573 | 0.926 | 0.635 | 0.754 | 0.863 | 0.867 | 0.832 | 1.11 | 0.696 | 0.992 | 0.588 | 0.491 | 0.682 | 0.443 | 0.517 | 0.398 | 0.869 | 0.928 | 0.826 | 0.934 | 0.837 |
| UMC-11 | 0.979 | 1.02 | 1.03 | 0.952 | 0.781 | 0.417 | 0.363 | 0.314 | 0.331 | 0.229 | 0.413 | 0.545 | 0.364 | 0.439 | 0.363 | 0.743 | 0.831 | 0.82 | 0.799 | 0.687 |
